Test results as given in patent US12599672B2, “KRAS proteolysis targeting chimeras” (PAQ Therapeutics Inc., priority 2023, dated 2026).

Columns and labels:
Assay type in all cases: cell-based
KRAS G12D = target: T1, KRAS G12D (Homo sapiens, UniProt P01116, G12D); experiment: KRAS G12D HiBit assay; conditions: AsPc-1-KRAS (G12D)-HiBit-KI cell, compound treatment for 24 hours; for DC50: absolute DC50
T1 construct: AsPc-1-KRAS (G12D)-HiBit-KI cell (Pharmaron); host or cells: AsPc-1-KRAS (G12D)-HiBit-KI cells (HiBiT knock-in at the endogenous KRAS locus)
In short: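 Cells were treated for 24 h with compounds in a 3-fold, 10-point dilution series from a 0.3 mM DMSO stock, then equilibrated 15 min at room temperature. KRAS G12D HiBiT levels were read by luminescence after lytic Nano-Glo HiBiT reagent with LgBiT; inhibition calculated relative to 0.1% DMSO high control.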

KRAS G12V = target: T2, KRAS G12V (Homo sapiens, UniProt P01116, G12V); experiment: KRAS G12V HiBit assay; conditions: SW620-KRAS (G12V)-HiBit-KI cells, compound treatment for 24 hours
T2 construct: SW620-KRAS (G12V)-HiBit-KI cell (Pharmaron); host or cells: SW620-KRAS (G12V)-HiBit-KI cells (HiBiT knock-in at the endogenous KRAS locus)
In short: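 HiBiT-tagged KRAS G12V cells treated 24 h with compound in a 3-fold, 10-point series (0.3 mM DMSO stock); lytic HiBiT reagent with LgBiT added after 15 min room-temperature equilibration. Degradation calculated against 0.1% DMSO high control.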

KRAS = target: T3, KRAS (Homo sapiens, UniProt P01116); experiment: KRASamp MSD assay; conditions: KE39 (KRAS amplified) cells, treated with test compounds for 24 hr, MSD readout of KRAS degradation
T3 construct: endogenous in cells; host or cells: KE39 (KRAS amplified) cells
In short: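 KRAS-amplified KE39 cells treated with compound for 24 hr, then lysed in RIPA buffer with protease/phosphatase inhibitors. KRAS protein measured by MSD sandwich immunoassay against a recombinant WT KRAS standard curve; DC50 derived from curve fitting of degradation.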

T2 sequence (P01116 1-188 isoform P01116-2 G12V): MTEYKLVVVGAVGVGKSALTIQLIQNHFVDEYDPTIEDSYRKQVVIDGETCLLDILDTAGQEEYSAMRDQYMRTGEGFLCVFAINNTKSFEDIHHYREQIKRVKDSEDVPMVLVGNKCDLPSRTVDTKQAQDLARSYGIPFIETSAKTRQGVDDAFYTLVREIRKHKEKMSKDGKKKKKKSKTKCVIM
T1 sequence (P01116 1-188 isoform P01116-2 G12D): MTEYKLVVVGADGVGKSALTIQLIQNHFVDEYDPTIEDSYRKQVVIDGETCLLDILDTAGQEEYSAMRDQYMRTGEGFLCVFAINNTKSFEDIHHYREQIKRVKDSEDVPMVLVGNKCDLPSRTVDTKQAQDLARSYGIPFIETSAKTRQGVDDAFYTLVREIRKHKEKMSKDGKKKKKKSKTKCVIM
T3 sequence (P01116 1-188 isoform P01116-2): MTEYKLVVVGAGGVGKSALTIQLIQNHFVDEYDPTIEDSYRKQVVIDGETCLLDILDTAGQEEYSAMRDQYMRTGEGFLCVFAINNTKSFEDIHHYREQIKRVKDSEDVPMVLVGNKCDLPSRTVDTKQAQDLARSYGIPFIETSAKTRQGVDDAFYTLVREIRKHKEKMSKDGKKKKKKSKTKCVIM

Compound	DC50 (KRAS G12D; class symbols) [nM]	DC50 (KRAS G12V; numeric bounds) [nM]	DC50 (KRAS) [nM]	DC50 (KRAS G12V; class symbols) [nM]	DC50 (KRAS G12D; numeric bounds given in place of class symbols) [nM]	Dmax (KRAS G12D; class symbols) [%]
C#Cc1c(F)ccc2cc(O)cc(-c3ncc4c(N5CCC[C@@](C)(O)C5)nc(OC[C@@]56CCCN5[C@H](COC(=O)N5CCC(OCC#Cc7cccc8c7n(C)c(=O)n8C7CCC(=O)NC7=O)CC5)CC6)nc4c3F)c12 (stereo partly drawn) [Compound 372, ((3S,7aS)-7a-(((7-(8-ethynyl-7-fluoro-3-hydroxynaphthalen-1-yl)-8-fluoro-4-((R)-3-hydroxy-3-methylpiperidin-1-yl)pyrido[4,3-d]pyrimidin-2-yl)oxy)methyl)hexahydro-1H-pyrrolizin-3-yl)methyl 4-((3-(1-(2,6-dioxopiperidin-3-yl)-3-methyl-2-oxo-2,3-dihydro-1H-benzo[d]imidazol-4-yl)prop-2-yn-1-yl)oxy)piperidine-1-carboxylate]	< 100	–	1 to 10	10 to 100	–	–
C#Cc1c(F)ccc2cccc(-c3ncc4c(N5CCC[C@@](C)(O)C5)nc(OC[C@@]56CCCN5[C@H](COC(=O)N5CCC(CN7CCC(c8cccc9c8n(C)c(=O)n9C8CCC(=O)NC8=O)CC7)CC5)CC6)nc4c3F)c12 (stereo partly shown) [Compound 137]	100 to 300	> 75.7	1 to 10	–	–	–
C#Cc1c(F)ccc2cc(O)cc(-c3ncc4c(N5CCC[C@@](C)(O)C5)nc(OC[C@@]56CCCN5[C@H](COC(=O)N5CCC(CN7CCC(c8cc9c(cc8F)n(C8CCC(=O)NC8=O)c(=O)n9C)CC7)CC5)CC6)nc4c3F)c12 (stereo partly drawn) [Compound 407, ((3S,7aS)-7a-(((7-(8-ethynyl-7-fluoro-3-hydroxynaphthalen-1-yl)-8-fluoro-4-((R)-3-hydroxy-3-methylpiperidin-1-yl)pyrido[4,3-d]pyrimidin-2-yl)oxy)methyl)hexahydro-1H-pyrrolizin-3-yl)methyl 4-((4-(1-(2,6-dioxopiperidin-3-yl)-6-fluoro-3-methyl-2-oxo-2,3-dihydro-1H-benzo[d]imidazol-5-yl)piperidin-1-yl)methyl)piperidine-1-carboxylate]	< 100	–	< 1	< 10	–	–
CCc1c(F)ccc2cc(O)cc(-c3ncc4c(N5CCC[C@@](C)(O)C5)nc(OC[C@@]56CCCN5[C@H](COC(=O)N5CC7(CCC(N8CCC(c9ccc%10c(c9)n(C)c(=O)n%10C9CCC(=O)NC9=O)CC8)CC7)C5)CC6)nc4c3F)c12 (stereo partly drawn) [Compound 467, ((3S,7aS)-7a-(((7-(8-ethyl-7-fluoro-3-hydroxynaphthalen-1-yl)-8-fluoro-4-((R)-3-hydroxy-3-methylpiperidin-1-yl)pyrido[4,3-d]pyrimidin-2-yl)oxy)methyl)hexahydro-1H-pyrrolizin-3-yl)methyl 7-(4-(1-(2,6-dioxopiperidin-3-yl)-3-methyl-2-oxo-2,3-dihydro-1H-benzo[d]imidazol-5-yl)piperidin-1-yl)-2-azaspiro[3.5]nonane-2-carboxylate]	< 100	–	< 1	< 10	–	–
CCc1c(F)ccc2cc(O)cc(-c3ncc4c(N5CCC[C@](C)(O)C5)nc(OC[C@]56CCCN5[C@@H](COC(=O)N5CC7CCC(C5)C7CN5CCC(c7ccc8c(c7)n(C)c(=O)n8C7CCC(=O)NC7=O)CC5)CC6)nc4c3F)c12 (stereo partly drawn) [Compound 391, ((3R,7aR)-7a-(((7-(8-ethyl-7-fluoro-3-hydroxynaphthalen-1-yl)-8-fluoro-4-((S)-3-hydroxy-3-methylpiperidin-1-yl)pyrido[4,3-d]pyrimidin-2-yl)oxy)methyl)hexahydro-1H-pyrrolizin-3-yl)methyl 8-((4-(1-(2,6-dioxopiperidin-3-yl)-3-methyl-2-oxo-2,3-dihydro-1H-benzo[d]imidazol-5-yl)piperidin-1-yl)methyl)-3-azabicyclo[3.2.1]octane-3-carboxylate]	< 100	–	< 1	< 10	–	–
CCc1c(F)ccc2cc(O)cc(-c3ncc4c(N5CCC[C@@](C)(O)C5)nc(OC[C@]56CCCN5[C@H](COC(=O)N5CCC(N7CCC(c8ccc9c(c8)n(C)c(=O)n9C8CCC(=O)NC8=O)C7)CC5)CC6)nc4c3F)c12 (stereo partly drawn) [Compound 337, ((3S,7aR)-7a-(((7-(8-ethyl-7-fluoro-3-hydroxynaphthalen-1-yl)-8-fluoro-4-((R)-3-hydroxy-3-methylpiperidin-1-yl)pyrido[4,3-d]pyrimidin-2-yl)oxy)methyl)hexahydro-1H-pyrrolizin-3-yl)methyl 4-(3-(1-(2,6-dioxopiperidin-3-yl)-3-methyl-2-oxo-2,3-dihydro-1H-benzo[d]imidazol-5-yl)pyrrolidin-1-yl)piperidine-1-carboxylate]	< 100	–	1 to 10	10 to 100	–	–
CCc1c(F)ccc2cc(O)cc(-c3ncc4c(N5CCC[C@@](C)(O)C5)nc(OC[C@@]56CCCN5[C@H](COC(=O)N5CCC(CN7CCC(c8ccc9c(c8F)n(C)c(=O)n9C8CCC(=O)NC8=O)CC7)CC5)CC6)nc4c3F)c12 (stereo partly drawn) [Compound 96, [(3S,8S)-8-[[7-(8-Ethyl-7-fluoro-3-hydroxy-1-naphthyl)-8-fluoro-4-[(3R)-3-hydroxyl-3-methyl-1-piperidyl]pyrido[4,3-d]pyrimidin-2-yl]oxymethyl]-1,2,3,5,6,7-hexahydropyrrolizin-3-yl]methyl4-[[4-[1-(2,6-dioxo-3-piperidyl)-4-fluoro-3-methyl-2-oxo-benzimidazol-5-yl]-1-piperidyl]methyl]piperidine-1-carboxylate]	< 100	–	< 1	< 10	–	> 50

Next, values leading:

DC50 (KRAS G12D; class symbols) [nM]	DC50 (KRAS G12V; numeric bounds) [nM]	DC50 (KRAS) [nM]	DC50 (KRAS G12V; class symbols) [nM]	DC50 (KRAS G12D; numeric bounds given in place of class symbols) [nM]	Dmax (KRAS G12D; class symbols) [%]	Compound
< 100	> 78.5	1 to 10	–	–	–	CCc1c(F)ccc2cc(O)cc(-c3ncc4c(N5CCC[C@@](C)(O)C5)nc(OC[C@]56CCCN5[C@H](CN5CCC(OCCCc7ccc8c(c7)n(C)c(=O)n8C7CCC(=O)NC7=O)CC5)CC6)nc4c3F)c12 (stereo partly drawn) [Compound 444, 3-(5-(3-((1-(((3S,7aR)-7a-(((7-(8-Ethyl-7-fluoro-3-hydroxynaphthalen-1-yl)-8-fluoro-4-((R)-3-hydroxy-3-methylpiperidin-1-yl)pyrido[4,3-d]pyrimidin-2-yl)oxy)methyl)hexahydro-1H-pyrrolizin-3-yl)methyl)piperidin-4-yl)oxy)propyl)-3-methyl-2-oxo-2,3-dihydro-1H-benzo[d]imidazol-1-yl) piperidine-2,6-dione]
< 100	–	1 to 10	10 to 100	–	–	CCc1c(F)ccc2cc(O)cc(-c3ncc4c(N5CCC[C@@](C)(O)C5)nc(OC[C@@]56CCCN5[C@H](CN5CCC(CN7CCC(Cc8ccc9c(c8)n(C)c(=O)n9C8CCC(=O)NC8=O)CC7)CC5)CC6)nc4c3F)c12 (stereo partly drawn) [Compound 436, 3-(5-((1-((1-(((3S,7aS)-7a-(((7-(8-ethyl-7-fluoro-3-hydroxynaphthalen-1-yl)-8-fluoro-4-((R)-3-hydroxy-3-methylpiperidin-1-yl)pyrido[4,3-d]pyrimidin-2-yl)oxy)methyl)hexahydro-1H-pyrrolizin-3-yl)methyl)piperidin-4-yl)methyl)piperidin-4-yl)methyl)-3-methyl-2-oxo-2,3-dihydro-1H-benzo[d]imidazol-1-yl)piperidine-2,6-dione]
< 100	–	< 1	< 10	–	–	CCc1c(F)ccc2cc(O)cc(-c3ncc4c(N5CCC[C@@](C)(O)C5)nc(OC[C@]56CCCN5[C@@H](COC(=O)N5CCC(CN7CCC(c8ccc9c(c8)n(C)c(=O)n9C8CCC(=O)NC8=O)CC7)CC5)CC6)nc4c3F)c12 (stereo partly drawn) [Compound 120, ((3R,7aR)-7a-(((7-(8-Ethyl-7-fluoro-3-hydroxynaphthalen-1-yl)-8-fluoro-4-((R)-3-hydroxyl-3-methylpiperidin-1-yl)pyrido[4,3-d]pyrimidin-2-yl)oxy)methyl)hexahydro-1H-pyrrolizin-3-yl)methyl4-((4-(1-(2,6-dioxopiperidin-3-yl)-3-methyl-2-oxo-2,3-dihydro-1H-benzo[d]imidazol-5-yl)piperidin-1-yl)methyl) piperidine-1-carboxylate]
–	–	≥ 10	> 100	> 100	–	CCc1c(F)ccc2cc(O)cc(-c3ncc4c(N5CCC[C@@](C)(O)C5)nc(OC[C@@]56CCCN5[C@@H](COC(=O)N5CCC(CCOc7ccc8c(c7)n(C)c(=O)n8C7CCC(=O)NC7=O)CC5)CC6)nc4c3F)c12 (stereo partly drawn) [Compound 315, ((3R,7aS)-7a-(((7-(8-ethyl-7-fluoro-3-hydroxynaphthalen-1-yl)-8-fluoro-4-((R)-3-hydroxy-3-methylpiperidin-1-yl)pyrido[4,3-d]pyrimidin-2-yl)oxy)methyl)hexahydro-1H-pyrrolizin-3-yl)methyl 4-(2-((1-(2,6-dioxopiperidin-3-yl)-3-methyl-2-oxo-2,3-dihydro-1H-benzo[d]imidazol-5-yl)oxy)ethyl)piperidine-1-carboxylate]
